Laboratory results reported in PubChem BioAssay (NCI).
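Cells were grown in 96-well plates and exposed to each compound for 48 hours at five concentrations; endpoints were interpolated linearly between bracketing concentrations, or set to the highest concentration if not reached. TGI is the concentration that stops growth completely.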

Tests used:
Experiment in all cases: growth of human tumour cells (NCI), 48 h
OVCAR-3 ovarian = system: OVCAR-3 ovarian
K-562 leukemia = system: K-562 leukemia
LOX IMVI melanoma = system: LOX IMVI melanoma
HOP-62 NSCLC = system: HOP-62 NSCLC
UO-31 renal = system: UO-31 renal
EKVX NSCLC = system: EKVX NSCLC
MOLT-4 leukemia = system: MOLT-4 leukemia
OVCAR-5 ovarian = system: OVCAR-5 ovarian
SNB-19 CNS = system: SNB-19 CNS
HS 578T breast = system: HS 578T breast
IGROV1 ovarian = system: IGROV1 ovarian
HCT-15 colon = system: HCT-15 colon
CAKI-1 renal = system: CAKI-1 renal
HL-60(TB) leukemia = system: HL-60(TB) leukemia
RPMI-8226 leukemia = system: RPMI-8226 leukemia
HCC-2998 colon = system: HCC-2998 colon
A549 NSCLC = system: A549 NSCLC
OVCAR-8 ovarian = system: OVCAR-8 ovarian
SR leukemia = system: SR leukemia
BT-549 breast = system: BT-549 breast
SF-539 CNS = system: SF-539 CNS
KM12 colon = system: KM12 colon
A498 renal = system: A498 renal
HOP-92 NSCLC = system: HOP-92 NSCLC
T-47D breast = system: T-47D breast
CCRF-CEM leukemia = system: CCRF-CEM leukemia
NCI-H226 lung = system: NCI-H226 lung
NCI-H522 lung = system: NCI-H522 lung
OVCAR-4 ovarian = system: OVCAR-4 ovarian
MDA-MB-435 = system: MDA-MB-435
NCI/ADR-RES ovarian = system: NCI/ADR-RES ovarian
UACC-257 melanoma = system: UACC-257 melanoma
HT29 colon = system: HT29 colon
SN12C renal = system: SN12C renal
TK-10 renal = system: TK-10 renal
SNB-75 CNS = system: SNB-75 CNS
PC-3 prostate = system: PC-3 prostate
MCF7 breast = system: MCF7 breast
COLO 205 colon = system: COLO 205 colon
NCI-H460 lung = system: NCI-H460 lung
SK-MEL-28 melanoma = system: SK-MEL-28 melanoma
SK-OV-3 ovarian = system: SK-OV-3 ovarian
HCT-116 colon = system: HCT-116 colon
786-0 renal = system: 786-0 renal
MALME-3M melanoma = system: MALME-3M melanoma
UACC-62 melanoma = system: UACC-62 melanoma
SF-295 CNS = system: SF-295 CNS
MDA-MB-231 breast = system: MDA-MB-231 breast
ACHN renal = system: ACHN renal
MDA-N = system: MDA-N
SW-620 colon = system: SW-620 colon
M14 melanoma = system: M14 melanoma
DU-145 prostate = system: DU-145 prostate
U251 CNS = system: U251 CNS
SK-MEL-5 melanoma = system: SK-MEL-5 melanoma
SK-MEL-2 melanoma = system: SK-MEL-2 melanoma
NCI-H23 lung = system: NCI-H23 lung
SF-268 CNS = system: SF-268 CNS

O=C(O)CCN1CCN(CCC(=O)O)CCN(CCC(=O)O)CC1
TGI (OVCAR-3 ovarian): > 100 µM
TGI (K-562 leukemia): > 100 µM
TGI (LOX IMVI melanoma): > 100 µM
TGI (HOP-62 NSCLC): > 100 µM
TGI (UO-31 renal): > 100 µM
TGI (EKVX NSCLC): > 100 µM
TGI (MOLT-4 leukemia): > 100 µM
TGI (OVCAR-5 ovarian): > 100 µM
TGI (SNB-19 CNS): > 100 µM
TGI (HS 578T breast): > 100 µM
TGI (IGROV1 ovarian): > 100 µM
TGI (HCT-15 colon): > 100 µM
TGI (CAKI-1 renal): > 100 µM
TGI (HL-60(TB) leukemia): 89.3 µM
TGI (RPMI-8226 leukemia): > 100 µM
TGI (HCC-2998 colon): > 100 µM
TGI (A549 NSCLC): > 100 µM
TGI (OVCAR-8 ovarian): > 100 µM
TGI (SR leukemia): > 100 µM
TGI (BT-549 breast): > 100 µM
TGI (SF-539 CNS): > 100 µM
TGI (KM12 colon): > 100 µM
TGI (A498 renal): > 100 µM
TGI (HOP-92 NSCLC): > 100 µM
TGI (T-47D breast): > 100 µM
TGI (CCRF-CEM leukemia): > 100 µM
TGI (NCI-H226 lung): > 100 µM
TGI (NCI-H522 lung): > 100 µM
TGI (OVCAR-4 ovarian): > 100 µM
TGI (MDA-MB-435): > 100 µM
TGI (NCI/ADR-RES ovarian): > 100 µM
TGI (UACC-257 melanoma): > 100 µM
TGI (HT29 colon): > 100 µM
TGI (SN12C renal): > 100 µM
TGI (TK-10 renal): > 100 µM
TGI (SNB-75 CNS): > 100 µM
TGI (PC-3 prostate): > 100 µM
TGI (MCF7 breast): > 100 µM
TGI (COLO 205 colon): > 100 µM
TGI (NCI-H460 lung): > 100 µM
TGI (SK-MEL-28 melanoma): > 100 µM
TGI (SK-OV-3 ovarian): > 100 µM
TGI (HCT-116 colon): > 100 µM
TGI (786-0 renal): > 100 µM
TGI (MALME-3M melanoma): > 100 µM
TGI (UACC-62 melanoma): > 100 µM
TGI (SF-295 CNS): > 100 µM
TGI (MDA-MB-231 breast): > 100 µM
TGI (ACHN renal): > 100 µM
TGI (MDA-N): > 100 µM
TGI (SW-620 colon): > 100 µM
TGI (M14 melanoma): > 100 µM
TGI (DU-145 prostate): > 100 µM
TGI (U251 CNS): > 100 µM
TGI (SK-MEL-5 melanoma): > 100 µM
TGI (SK-MEL-2 melanoma): > 100 µM

COC(=O)c1cc2/c(=N/O)c3ccccc3sc2o1
TGI (OVCAR-3 ovarian): > 100 µM
TGI (K-562 leukemia): > 100 µM
TGI (LOX IMVI melanoma): > 100 µM
TGI (HOP-62 NSCLC): > 100 µM
TGI (EKVX NSCLC): > 100 µM
TGI (MOLT-4 leukemia): > 100 µM
TGI (OVCAR-5 ovarian): > 100 µM
TGI (SNB-19 CNS): > 100 µM
TGI (HS 578T breast): > 100 µM
TGI (IGROV1 ovarian): > 100 µM
TGI (HCT-15 colon): > 100 µM
TGI (CAKI-1 renal): > 100 µM
TGI (HL-60(TB) leukemia): > 100 µM
TGI (RPMI-8226 leukemia): > 100 µM
TGI (HCC-2998 colon): > 100 µM
TGI (A549 NSCLC): > 100 µM
TGI (OVCAR-8 ovarian): > 100 µM
TGI (SR leukemia): > 100 µM
TGI (BT-549 breast): > 100 µM
TGI (SF-539 CNS): > 100 µM
TGI (KM12 colon): > 100 µM
TGI (A498 renal): > 100 µM
TGI (NCI-H23 lung): > 100 µM
TGI (HOP-92 NSCLC): > 100 µM
TGI (T-47D breast): > 100 µM
TGI (CCRF-CEM leukemia): > 100 µM
TGI (NCI-H226 lung): > 100 µM
TGI (NCI-H522 lung): > 100 µM
TGI (OVCAR-4 ovarian): > 100 µM
TGI (MDA-MB-435): > 100 µM
TGI (NCI/ADR-RES ovarian): > 100 µM
TGI (UACC-257 melanoma): > 100 µM
TGI (HT29 colon): > 100 µM
TGI (SF-268 CNS): > 100 µM
TGI (SN12C renal): > 100 µM
TGI (TK-10 renal): > 100 µM
TGI (SNB-75 CNS): > 100 µM
TGI (PC-3 prostate): > 100 µM
TGI (MCF7 breast): > 100 µM
TGI (COLO 205 colon): > 100 µM
TGI (NCI-H460 lung): > 100 µM
TGI (SK-MEL-28 melanoma): > 100 µM
TGI (SK-OV-3 ovarian): > 100 µM
TGI (HCT-116 colon): > 100 µM
TGI (786-0 renal): > 100 µM
TGI (MALME-3M melanoma): > 100 µM
TGI (UACC-62 melanoma): > 100 µM
TGI (SF-295 CNS): > 100 µM
TGI (MDA-MB-231 breast): > 100 µM
TGI (ACHN renal): > 100 µM
TGI (MDA-N): > 100 µM
TGI (SW-620 colon): > 100 µM
TGI (M14 melanoma): > 100 µM
TGI (DU-145 prostate): > 100 µM
TGI (U251 CNS): > 100 µM
TGI (SK-MEL-5 melanoma): > 100 µM
TGI (SK-MEL-2 melanoma): > 100 µM
